According to patent US4886663A (priority 1983, dated 1989):
Where no end group is shown, it is not given here.

Columns and labels:
[1] = tested on: hyperimmune antisera to synthetic ST; format: binding, goat and rabbit
[2] = tested on: hyperimmune antisera to biologic ST; format: binding, goat and rabbit
[3] = tested on: goat hyperimmune antiserum to synthetic ST; conditions: in vivo
[4] = tested on: suckling mouse; conditions: in vivo
[5] = in vivo, po
[6] = tested on: rat ligated ileal loops; conditions: in vivo
[7] = tested on: hyperimmune rabbit antiserum to biologic ST; conditions: in vivo
[8] = tested on: rabbit ligated ileal loops; conditions: in vivo

Sequence: NTFYCCELCCYPACAGCN (cysteine pairing not given here) [synthetic ST]
- Anti-Syn. ST: percent recognition of assayed ST by antiserum raised to synthetic ST [1]: 100
- antigenicity compared with biologic ST [1]: identical
- Anti-Biol.-ST: percent recognition of assayed ST by antiserum raised to biologic ST [2]: 263
- antigenicity relative to biologic ST Ib, later preparations [2]: about 3 fold
- mouse units of toxin neutralized by one milliliter of goat hyperimmune antiserum to synthetic ST [3]: 220 MU
- Nanograms required to provide a gut: whole body ratio of 0.083 [4]: 5.3 ng
- Suckling Mouse (Percent) [4]: 120
- biological activity / potency in suckling mouse assay compared with biologic (E. coli) ST [4]: substantially the same as biologic ST
- mouse units of ST activity per microgram [4]: 175 mouse units per microgram
- reduction of ST toxicity by the cross-linking reaction to B subunit [4]: 727 fold
- secretory activity in the suckling mouse assay after dithiothreitol [4]: abolished its secretory activity
- value for one mouse unit [4]: 5.7 nanograms
- diarrhea after p.o. administration [5]: did not cause diarrhea
- ED50 in rat ligated ileal loops [6]: 2.0 nanograms
- secretory responses in ligated ileal loops compared with biologic ST [6]: Substantial identity of secretory responses
- mouse units of toxin neutralized by one milliliter of hyperimmune rabbit antiserum to biologic ST [7]: 160 MU
- fluid secretion in rabbit ligated ileal loops [8]: did not cause any fluid secretion
- fluid:length ratio in rabbit ligated ileal loops [8]: 1.1±0.3
